The subject of assay [1] is IL-23-stimulated STAT-dependent luciferase reporter in Kit225 T cells. Put plainly: Kit225 T cell assay, IL-23 stimulated STAT-dependent luciferase reporter. It is filed as cell-based, human. To be noted: Kit225 T cells, 20 ng/mL human recombinant IL-23, 5-6 hours, luciferase; read-out: IL23 (Kit225 T Cell Inhibition Data). As to the method:
(§1) Kit225 T cells with a stably-integrated STAT-dependent luciferase reporter were plated in RPMI (Gibco) containing 10% heat-inactivated FBS (Gibco) and 100 U/mL PenStrep (Gibco). The cells were then stimulated with either 20 ng/mL human recombinant IL-23 or 200 U/mL human recombinant IFNα (PBL InterferonSource) for 5-6 hours. Luciferase expression was measured using the STEADY-GLO® Luciferase Assay System (Promega) according to the manufacturer's instructions.
(A reporter such as luciferase makes a cellular process visible.)

In assay [2] the test system is IFNα-stimulated STAT-dependent luciferase reporter in Kit225 T cells. Put plainly: Kit225 T cell assay, IFNα stimulated STAT-dependent luciferase reporter. It is filed as cell-based, human. To be noted: Kit225 T cells, 200 U/mL human recombinant IFNα, 5-6 hours, luciferase; read-out: IFNα (Kit225 T Cell Inhibition Data). The method, then:
as §1

pIC50: −log10 of the molar value.

In the case of `CNC(=O)c1cnc(Nc2ccc(F)cn2)cc1Nc1ccc(OC)cc1C(N)=O` [Example 250], the pIC50 in assay [1] was 6.33; in assay [2] it was 6.52.
As to `CNC(=O)c1cnc(Nc2cc(C)ccn2)cc1Nc1cccc(F)c1S(C)(=O)=O` [Example 49], the pIC50 in assay [1] is 6.39; in assay [2] it was 6.27.
For `CNC(=O)c1cnc(Nc2ccc(F)cn2)cc1Nc1ccc(Cl)cc1OC` [Example 99], the pIC50 in assay [1] is 6.32; in assay [2], 6.51.
Regarding `CNC(=O)c1cnc(Nc2cc(C)ccn2)cc1Nc1ccccc1S(C)(=O)=O` [Example 4], the pIC50 in assay [1] is 7.44; in assay [2] it was 7.52.
The like results for `CNC(=O)c1cnc(Nc2ccc(F)cn2)cc1Nc1ccc(C)cc1` [Example 193] were, in that order, 5.43 and 5.49.
The like results for `CNC(=O)c1cnc(Nc2ncccc2C)cc1Nc1ccccc1C(N)=O` [Example 83] were, in that order, 5.24 and 5.16.
The like results for `CNC(=O)c1cnc(Nc2cc(OC)ccn2)cc1Nc1ccc(F)cc1OC` [Example 170] were, in that order, 5.79 and 5.76.
Take `CNC(=O)c1cnc(Nc2cnc(C#N)cn2)cc1Nc1ccccc1S(C)(=O)=O` [Example 41]: the pIC50 is 5.21 in assay [1] and 5.72 in assay [2].
Taken in the same sequence, the figures for `[2H]C([2H])([2H])NC(=O)c1cnc(Nc2cc(C)nc(C)n2)cc1Nc1cccc(-c2cnn(C)c2)c1OC` [Example 397] were 7.22 and 8.06.
Taken in the same sequence, the figures for `CNC(=O)c1cnc(Nc2ccc(F)cn2)cc1Nc1ccc(F)c(F)c1` [Example 204] were 5.03 and 5.09.
Regarding `CNC(=O)c1cnc(Nc2cc(C(=O)N(C)C)ccn2)cc1Nc1cccc(F)c1OC` [Example 277], the pIC50 was 6.57 in assay [1] and 6.62 in assay [2].
The like results for `CNC(=O)c1cnc(Nc2cc(C)c(F)cn2)cc1Nc1cccc(-c2nnc(C)[nH]2)c1OC` [Example 364, 6-((5-fluoro-4-methylpyridin-2-yl)amino)-4-((2-methoxy-3-(5-methyl-4H-1,2,4-triazol-3-yl)phenyl)amino)-N-methylnicotinamide] were, in that order, 8.00 and 8.00.
`CNC(=O)c1cnc(Nc2cc(C(=O)N3CCCC3)ccn2)cc1Nc1cc(F)cc(F)c1OC` [Example 270]: the pIC50 in assay [1] was 6.66; in assay [2] it was 6.77.
On to `CNC(=O)c1cnc(Nc2cc(F)ccn2)cc1Nc1ccccc1NS(C)(=O)=O` [Example 427], for which the pIC50 is 6.85 in assay [1] and 6.82 in assay [2].
For `CNC(=O)c1cnc(Nc2ccccn2)cc1Nc1ccccc1C(N)=O` [Example 68], the pIC50 in assay [1] is 6.30; in assay [2], 6.62.
`CNC(=O)c1cnc(Nc2cccnn2)cc1Nc1ccccc1C(C)(C)O` [Example 182]: in assay [1], the pIC50 was 5.05.
As to `CNC(=O)c1cnc(Nc2ccc(F)cn2)cc1Nc1ccccc1S(=O)(=O)C(F)(F)F` [Example 28], in assay [2], the pIC50 is 5.02.
Take `CNC(=O)c1cnc(Nc2cc(C#N)ccn2)cc1Nc1cccc(C)c1C(N)=O` [Example 177]: in assay [1], the pIC50 was 6.41.
`CNC(=O)c1cnc(Nc2cc(C#N)ccn2)cc1Nc1cccc(S(C)(=O)=O)c1F` [Example 35]: the pIC50 in assay [1] was 5.35.
Consider `CNC(=O)c1cnc(Nc2ccc(F)cn2)cc1Nc1ccc(F)cc1C` [Example 189], for which, in assay [2], the pIC50 is 5.03.
Still for that read-out and setting: then `CNC(=O)c1cnc(Nc2ccc(F)cn2)cc1Nc1cccc(OC)c1` [Example 202], with 5.18.
Consider `CNC(=O)c1cnc(Nc2ccc(C(F)(F)F)cn2)cc1Nc1ccccc1C(C)(C)O` [Example 181], for which the pIC50 in assay [1] was 5.21.
Turning to `CNC(=O)c1cnc(Nc2ccc(C(N)=O)cn2)cc1Nc1ccccc1C(N)=O` [Example 93], the pIC50 in assay [1] was 6.33.
`CNC(=O)c1cnc(Nc2cc(S(C)(=O)=O)ccn2)cc1Nc1cccc(F)c1OC` [Example 282]: in assay [1], the pIC50 was 6.29.
Turning to `CNC(=O)c1cnc(Nc2ccc(F)cn2)cc1Nc1cc2ccccc2cc1C(N)=O` [Example 253], in assay [2], the pIC50 was 6.36.

The values above are taken from patent US9315494B2, “Alkyl-amide-substituted pyridyl compounds useful as modulators of IL-12, IL-23 and/or IFNα responses” (Bristol-Myers Squibb Company, priority 2012, dated 2016).
